Tests used:
[1] = Inhibition of GGTase1
[2] = Selectivity ratio of IC50 for farnesyltransferase to IC50 for GGTase1

Question: For `CSCCc1c(-c2cccnc2)nn(-c2ccc(Cl)c(Cl)c2)c1OCCCC(=O)N[C@@H](Cc1ccccc1)C(N)=O`, which IC50 [1] is on record?
Answer: 8 nM

Question: And the Ratio IC50 [2]?
Answer: 250

From ChEMBL document CHEMBL1221190, “Therapeutic intervention based on protein prenylation and associated modifications” (Nat Chem Biol, 2006)
